The results in this text go back to patent publication US9670157B2, “Benzylamine derivatives” (KALVISTA PHARMACEUTICALS LIMITED, priority 2013, dated 2017).

One series deals with plasmin (Homo sapiens (Human), UniProt P00747). The series is described as follows: Determination of Enzyme Selectivity: plasmin. The series is classed as biochemical. Particulars: substrate at Km concentration. The method, then:
(§1) Human serine protease enzymes plasmin, thrombin, trypsin, Factor Xa and Factor XIIa were assayed for enzymatic activity using an appropriate fluorogenic substrate. Protease activity was measured by monitoring the accumulation of liberated fluorescence from the substrate over 5 minutes. The linear rate of fluorescence increase per minute was expressed as percentage (%) activity. The Km for the cleavage of each substrate was determined by standard transformation of the Michaelis-Menten equation.

For a further series, the target named is thrombin (Homo sapiens (Human), UniProt P00734). In words: Determination of Enzyme Selectivity: thrombin. The series is classed as biochemical. Particulars: substrate at Km concentration. How it is done:
as §1

A further series has as its target Human plasma kallikrein (Homo sapiens (Human), UniProt P03952). In words: Determination of the IC50 for Plasma Kallikrein. The series is classed as biochemical. The following applies: 37° C., fluorogenic substrate H-DPro-Phe-Arg-AFC; read-out: IC50 (human PKal). The method, then:
Human plasma kallikrein (Protogen) was incubated at 37° C. with the fluorogenic substrate H-DPro-Phe-Arg-AFC and various concentrations of the test compound. Residual enzyme activity (initial rate of reaction) was determined by measuring the change in optical absorbance at 410 nm and the IC50 value for the test compound was determined.

The target of the next series is Factor XIIa (Homo sapiens (Human), UniProt P00748). In words: Determination of Enzyme Selectivity: Factor XIIa. The series is classed as biochemical. The following applies: substrate at Km concentration. How it is done:
as §1

The target in the next series is trypsin. The series is described as follows: Determination of Enzyme Selectivity: trypsin. The series is classed as biochemical, Human. Particulars: substrate at Km concentration. The method, then: as §1
For the next series, the target named is Human KLK1 (Homo sapiens (Human), UniProt P06870). The series is described as follows: Determination of the IC50 for KLK1. The series is classed as biochemical. Particulars: 37° C., fluorogenic substrate H-DVal-Leu-Arg-AFC. The method, boiled down: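 KLK1 inhibition was measured in vitro following standard published methods. Human KLK1 (Callbiochem) was incubated at 37° C. with the fluorogenic substrate H-DVal-Leu-Arg-AFC in the presence of a range of test compound concentrations. Residual enzyme activity, taken as the initial reaction rate, was followed by the change in optical absorbance at 410 nm, and IC50 values were derived.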

The nature of series [1]: Pharmacokinetics following a single oral dose in rats. The series is classed as in vivo. The following applies: rat, nominal 10 mg/kg, male Sprague-Dawley rats, plasma. The method, then:
Pharmacokinetic studies of selected examples were performed to assess the pharmacokinetics following a single oral dose in male Sprague-Dawley rats. Typically, either two or three rats were given a single po dose of 5 mL/kg of a nominal 2 mg/mL (10 mg/kg) composition of test compound in either 5% cremophor:5% ethanol:90% phosphate buffered saline or 20% Labrasol:80% water. Following dosing, blood samples were collected over a period of 8 hours. Typical sample times include 5, 15 and 30 minutes then 1, 2, 4, 6 and 8 hours. Following collection, blood samples were centrifuged and the plasma fraction analysed for concentration of test compound by LCMS.

Human KLK1, sequence (P06870 25-262): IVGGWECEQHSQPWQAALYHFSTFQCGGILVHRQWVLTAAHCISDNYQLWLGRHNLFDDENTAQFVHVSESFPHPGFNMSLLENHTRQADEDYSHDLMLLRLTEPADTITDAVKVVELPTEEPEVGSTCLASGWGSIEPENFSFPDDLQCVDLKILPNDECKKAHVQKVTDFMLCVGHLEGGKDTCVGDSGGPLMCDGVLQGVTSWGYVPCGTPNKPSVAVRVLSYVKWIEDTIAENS
plasmin, sequence (P00747 581-810): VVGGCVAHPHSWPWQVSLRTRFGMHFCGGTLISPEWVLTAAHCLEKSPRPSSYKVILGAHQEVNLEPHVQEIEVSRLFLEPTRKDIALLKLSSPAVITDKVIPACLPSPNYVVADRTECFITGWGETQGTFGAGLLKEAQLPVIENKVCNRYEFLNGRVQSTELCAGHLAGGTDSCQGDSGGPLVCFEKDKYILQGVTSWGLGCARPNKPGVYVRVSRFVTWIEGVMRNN
plasmin, sequence (P00747 97-580 partner): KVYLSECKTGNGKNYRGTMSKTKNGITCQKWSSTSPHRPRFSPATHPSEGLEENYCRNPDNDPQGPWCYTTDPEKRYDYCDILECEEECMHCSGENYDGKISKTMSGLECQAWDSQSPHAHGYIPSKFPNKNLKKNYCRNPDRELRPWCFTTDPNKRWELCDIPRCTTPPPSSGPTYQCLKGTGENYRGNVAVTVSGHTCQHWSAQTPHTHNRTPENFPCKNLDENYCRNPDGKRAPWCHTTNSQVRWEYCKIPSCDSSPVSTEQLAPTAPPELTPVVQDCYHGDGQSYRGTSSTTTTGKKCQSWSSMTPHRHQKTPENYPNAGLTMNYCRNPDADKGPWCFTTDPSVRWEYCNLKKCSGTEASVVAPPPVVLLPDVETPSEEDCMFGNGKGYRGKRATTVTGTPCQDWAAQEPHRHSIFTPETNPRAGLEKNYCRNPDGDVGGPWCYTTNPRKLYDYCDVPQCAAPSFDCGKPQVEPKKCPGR
Human plasma kallikrein, sequence (P03952 391-638): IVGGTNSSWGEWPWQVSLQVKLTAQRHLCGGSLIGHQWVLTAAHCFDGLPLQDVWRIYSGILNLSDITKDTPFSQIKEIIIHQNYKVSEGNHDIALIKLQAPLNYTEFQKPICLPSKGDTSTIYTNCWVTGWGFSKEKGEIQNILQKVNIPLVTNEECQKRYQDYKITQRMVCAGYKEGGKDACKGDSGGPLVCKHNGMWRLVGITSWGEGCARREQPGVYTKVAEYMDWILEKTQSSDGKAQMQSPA
Human plasma kallikrein, sequence (P03952 20-390 partner): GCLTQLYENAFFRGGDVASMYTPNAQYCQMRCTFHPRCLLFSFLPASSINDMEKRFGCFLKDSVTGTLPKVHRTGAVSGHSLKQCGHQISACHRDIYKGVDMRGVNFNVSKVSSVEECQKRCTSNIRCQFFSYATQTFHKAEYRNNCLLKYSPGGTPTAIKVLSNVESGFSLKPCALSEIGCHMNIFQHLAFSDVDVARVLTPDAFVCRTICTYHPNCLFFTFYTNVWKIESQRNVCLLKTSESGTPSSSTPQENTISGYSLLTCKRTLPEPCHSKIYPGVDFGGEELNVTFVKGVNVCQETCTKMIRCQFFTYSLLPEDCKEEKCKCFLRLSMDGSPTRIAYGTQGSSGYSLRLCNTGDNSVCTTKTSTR
Factor XIIa, sequence (P00748 373-615): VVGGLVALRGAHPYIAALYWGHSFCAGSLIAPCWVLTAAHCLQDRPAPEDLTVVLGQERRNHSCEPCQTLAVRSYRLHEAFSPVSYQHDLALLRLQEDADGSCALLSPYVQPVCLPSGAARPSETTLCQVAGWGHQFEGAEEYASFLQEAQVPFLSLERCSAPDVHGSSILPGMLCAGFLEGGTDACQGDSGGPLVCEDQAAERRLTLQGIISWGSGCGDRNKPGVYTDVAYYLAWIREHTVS

`Cc1cc(C(=O)NCc2ccc(CN)cc2)c(C)n1Cc1csc(-c2ccccc2)n1` [Example 1, 2,5-Dimethyl-1-(2-phenyl-thiazol-4-ylmethyl)-1H-pyrrole-3-carboxylic acid 4-aminomethyl-benzylamide]: the IC50 against plasmin was more than 40 µM; against thrombin, more than 40 µM; on Human plasma kallikrein it was 0.063 µM; at Factor XIIa, more than 10 µM; against trypsin it was more than 40 µM; at Human KLK1 it was more than 10 µM. In series [1], the Cmax is 81 ng/mL. In addition, the Tmax in series [1] is 4.67 h.
`Cc1cc(CN)ccc1CNC(=O)c1cc(C)n(Cc2csc(-c3ccccc3)n2)c1C` [Example 2, 2,5-Dimethyl-1-(2-phenyl-thiazol-4-ylmethyl)-1H-pyrrole-3-carboxylic acid 4-aminomethyl-2-methyl-benzylamide]: the IC50 on plasmin was 24.8 µM; against thrombin, more than 40 µM; at Human plasma kallikrein, 0.015 µM; against Factor XIIa, more than 10 µM; against trypsin, more than 40 µM; against Human KLK1 it was more than 10 µM. In series [1], this compound gave a Cmax of 59 ng/mL. In addition, in series [1], the Tmax was 5 h.
Regarding `Cc1cc(C(=O)NCc2ccc(CN)cc2)c(C)n1Cc1csc(-c2ccsc2)n1` [Example 37, 2,5-Dimethyl-1-(2-thiophen-3-yl-thiazol-4-ylmethyl)-1H-pyrrole-3-carboxylic acid 4-aminomethyl-benzylamide], the results for the IC50 on Human plasma kallikrein and on Human KLK1 were 0.17 µM and more than 10 µM, respectively. This compound had a Cmax in series [1] of 171 ng/mL. In series [1], the Tmax is 3.5 h.
On to `Cc1cc(C(=O)NCc2ccc(CN)nc2)c(C)n1Cc1csc(-c2ccccc2)n1` [Example 43, 2,5-Dimethyl-1-(2-phenyl-thiazol-4-ylmethyl)-1H-pyrrole-3-carboxylic acid (6-aminomethyl-pyridin-3-ylmethyl)-amide], for which the IC50 on Human plasma kallikrein worked out at 0.196 µM. The IC50 on Human KLK1 is more than 10 µM. For the same compound, in series [1], the Cmax is 71 ng/mL and the time of peak concentration (Tmax) is 4 h.
In the case of `Cc1cc(C(=O)NCc2ccc(CN)c(F)c2)c(C)n1Cc1csc(-c2ccccc2)n1` [Example 45, 2,5-Dimethyl-1-(2-phenyl-thiazol-4-ylmethyl)-1H-pyrrole-3-carboxylic acid 4-aminomethyl-3-fluoro-benzylamide], at Human plasma kallikrein, the IC50 is 0.135 µM. On Human KLK1, the IC50 was more than 10 µM. For the same compound, in series [1], the Cmax worked out at 228 ng/mL and the time of peak concentration (Tmax) is 2.58 h.
As to `NCc1ccc(CNC(=O)c2cn(Cc3csc(-c4ccccc4)n3)nc2C(F)(F)F)cc1` [Example 83, 1-(2-Phenyl-thiazol-4-ylmethyl)-3-trifluoromethyl-1H-pyrazole-4-carboxylic acid 4-aminomethyl-benzylamide], the IC50 on plasmin is 27.2 µM; against thrombin it was more than 40 µM; on Human plasma kallikrein, 0.452 µM; against Factor XIIa, more than 8.51 µM; at trypsin it was 26.6 µM; against Human KLK1, more than 10 µM.
On to `NCc1ccc(CNC(=O)c2cn(Cc3ccccc3)nc2-c2ccccc2)cc1` [Example 84, 1-Benzyl-3-phenyl-1H-pyrazole-4-carboxylic acid 4-aminomethyl-benzylamide], for which the IC50 against plasmin is more than 40 µM; against thrombin it was more than 40 µM; at Human plasma kallikrein, 8.38 µM; on Factor XIIa, more than 10 µM; against trypsin, more than 40 µM; against Human KLK1, more than 10 µM.
In the case of `Cc1cnn(Cc2ccc(Cn3c(C)cc(C(=O)NCc4c(C)cc(CN)cc4C)c3C)cc2)c1` [Example 101, 2,5-Dimethyl-1-[4-(4-methyl-pyrazol-1-ylmethyl)-benzyl]-1H-pyrrole-3-carboxylic acid 4-aminomethyl-2,6-dimethyl-benzylamide], the IC50 at Human plasma kallikrein was 0.004 µM; at Factor XIIa it was more than 10 µM; on Human KLK1, 6.31 µM. The same compound came in with a Cmax in series [1] of 67 ng/mL. The time to peak (Tmax) in series [1] is 5 h.
In the case of `Cc1cnn(Cc2ccc(Cn3cc(C(=O)NCc4ccc(CN)c(F)c4C)c(C(F)(F)F)n3)cc2)c1` [Example 119, 1-[4-(4-Methyl-pyrazol-1-ylmethyl)-benzyl]-3-trifluoromethyl-1H-pyrazole-4-carboxylic acid 4-aminomethyl-3-fluoro-2-methyl-benzylamide], the IC50 was 0.009 µM at Human plasma kallikrein, more than 40 µM on Factor XIIa and more than 10 µM against Human KLK1.
For the compound `Cc1ccc2cc(Cn3cc(C(=O)NCc4c(C)cc(CN)cc4C)c(C)n3)ccc2n1` [Example 124, 3-Methyl-1-(2-methyl-quinolin-6-ylmethyl)-1H-pyrazole-4-carboxylic acid 4-aminomethyl-2,6-dimethyl-benzylamide], the IC50 at Human plasma kallikrein was 0.002 µM; against Factor XIIa, more than 40 µM; against Human KLK1, 0.301 µM.
`Cc1ccc2cc(Cn3ncc(C(=O)NCc4c(C)cc(CN)cc4C)c3C)ccc2n1` [Example 125, 5-Methyl-1-(2-methyl-quinolin-6-ylmethyl)-1H-pyrazole-4-carboxylic acid 4-aminomethyl-2,6-dimethyl-benzylamide]: the IC50 is 0.003 µM on Human plasma kallikrein, more than 40 µM at Factor XIIa and 0.657 µM on Human KLK1.
On to `Cc1ccc2cc(Cn3cc(C(=O)NCc4c(C)cc(CN)cc4C)c(C(F)(F)F)n3)ccc2n1` [Example 126, 1-(2-Methyl-quinolin-6-ylmethyl)-3-trifluoromethyl-1H-pyrazole-4-carboxylic acid 4-aminomethyl-2,6-dimethyl-benzylamide], for which the IC50 against Factor XIIa was more than 40 µM; at Human KLK1 it was 0.566 µM.
Take `Cc1ccc2cc(Cn3ncc(C(=O)NCc4c(C)cc(CN)cc4C)c3C(F)(F)F)ccc2n1` [Example 127, 1-(2-Methyl-quinolin-6-ylmethyl)-5-trifluoromethyl-1H-pyrazole-4-carboxylic acid 4-aminomethyl-2,6-dimethyl-benzylamide]: the values for the IC50 against Factor XIIa and at Human KLK1 were more than 40 µM and more than 10 µM, respectively.

A word on the IC50: it is the concentration that gives 50% inhibition. Usually Cmax stands for the maximum level reached in the sampled fluid or tissue. One may read the Tmax as the time from dosing to the highest level.
